Like-named read-outs stand apart in the source and are kept apart here.
Tests used:
[1] = Phase 1 study of a single oral dose of voxelotor in subjects with hepatic impairment: whole blood and plasma PK; assay type: in vivo, human; details: for half-life / Tmax / AUC(0-t) / AUC(0-inf) / Cmax / Vd/F: human, po; for half-life: read-out: t1/2, mean (converted); for Tmax: read-out: tmax, median (converted); for AUC(0-inf): read-out: AUCinf, GM (converted); for Cmax: read-out: Cmax, GM (converted); for Vd/F: read-out: Vz/F, GM (converted)
Method: A Phase 1, open-label study was performed to characterize pharmacokinetics (PK) and safety of a single oral dose of voxelotor in subjects with hepatic impairment. The study was to assess the effects of mild, moderate, or severe hepatic impairment on the PK of a single oral dose of voxelotor, to evaluate the safety and tolerability of a single oral dose of voxelotor in subjects with mild, moderate, or severe hepatic impairment, as well as to establish potential dose adjustment guidance based upon the degree of hepatic insufficiency. […] This study was designed to assess the effects of mild, moderate, or severe hepatic impairment on the PK of a single oral dose of voxelotor. Routine safety assessments (AE monitoring, vital signs, physical examinations, clinical laboratory tests, and ECGs) were performed. Eligible subjects received a single oral dose of voxelotor 1500 mg (5×300-mg capsules) on Day 1 (for normal hepatic function, mild and moderate hepatic impairment). […] No food was allowed for at least 4 hours postdose. No water or any type of liquid was allowed for 1 hour before dosing through 1-hour postdose with the exception of water consumed for dosing. Adverse events and concomitant medication use were monitored throughout the study. Safety assessments, including physical examinations, vital signs assessments, 12-lead ECGs, and clinical laboratory tests, were performed. Whole blood and plasma concentrations of voxelotor were determined using validated assays. […] Louis, Mo.) and actual sampling times. The following PK parameters were determined. To assess the effect of hepatic impairment on the PK of voxelotor, a linear mixed-effect model was fitted to the log-transformed values of whole blood and plasma Cmax, AUCt, and AUCinf. The model included hepatic impairment group as a fixed effect and age and weight as covariates. Point estimates and 90% CIs for hepatic function group differences (mild, moderate, and severe hepatically-impaired subjects [test] versus the normal hepatic function subjects [control]) on the log scale were exponentiated to obtain estimates for GM ratios on the original scale. Voxelotor whole blood and plasma concentrations were measured using a validated liquid chromatography-mass spectrometry method. The lower limit of assay quantitation for voxelotor was 10.0 ng/mL for whole blood and 5.00 ng/mL in plasma.

Hb = experiment: Pharmacodynamics: Hb oxygen affinity (p50) and clinical measures of hemolysis; assay type: in vivo
[2] = whole blood, 600 mg, whole blood, severe hepatic impairment, 600 mg single oral dose
[3] = whole blood, 1500 mg, whole blood, mild hepatic impairment, 1500 mg single oral dose
[4] = whole blood, 1500 mg, whole blood, moderate hepatic impairment, 1500 mg single oral dose
[5] = whole blood, 1500 mg, whole blood, normal hepatic function, 1500 mg single oral dose
[6] = plasma, Mild (Test) vs Normal (Ref)
[7] = plasma, Moderate (Test) vs Normal (Ref)
[8] = plasma, Severe (Test, adjusted for dose) vs Normal (Ref)
[9] = severe hepatic impairment, Cmax adjusted for dose
[10] = whole blood, Mild (Test) vs Normal (Ref)
[11] = whole blood, Moderate (Test) vs Normal (Ref)
[12] = whole blood, Severe (Test, adjusted for dose) vs Normal (Ref)

Molecule `CC(C)n1nccc1-c1ncccc1COc1cccc(O)c1C=O` [voxelotor, 2-hydroxy-6-((2-(1-isopropyl-1H-pyrazol-5-yl)pyridin-3-yl)methoxy)benzaldehyde] has a half-life [1, 2] of 111 h, a Tmax [1, 2] of 24 h and an AUC(0-t) ([1]; whole blood, 1500 mg, whole blood, mild hepatic impairment, 1500 mg single oral dose, read-out: AUC0-96, GM (converted)) of 5160 µg·h/mL. For the same molecule, the AUC(0-inf) [1, 3] was 8230 µg·h/mL, the AUC(0-t) ([1]; whole blood, 1500 mg, whole blood, mild hepatic impairment, 1500 mg single oral dose, read-out: AUCt, GM (converted)) was 8190 µg·h/mL and the Cmax [1, 3] was 73.6 µg/mL. It also gave a Vd/F [1, 3] of 15.8 L, a half-life [1, 3] of 60.1 h and a Tmax [1, 3] of 24 h. For the same molecule, the AUC(0-t) ([1]; whole blood, 1500 mg, whole blood, moderate hepatic impairment, 1500 mg single oral dose, read-out: AUC0-96, GM (converted)) was 4660 µg·h/mL, the AUC(0-inf) [1, 4] was 8360 µg·h/mL and the AUC(0-t) ([1]; whole blood, 1500 mg, whole blood, moderate hepatic impairment, 1500 mg single oral dose, read-out: AUCt, GM (converted)) was 8320 µg·h/mL. For the same molecule, the Cmax [1, 4] was 63.8 µg/mL, the Vd/F [1, 4] was 20.6 L and the half-life [1, 4] was 79.5 h. It also gave a Tmax [1, 4] of 24 h, an AUC(0-t) ([1]; whole blood, 1500 mg, whole blood, normal hepatic function, 1500 mg single oral dose, read-out: AUC0-96, GM (converted)) of 4270 µg·h/mL and an AUC(0-inf) [1, 5] of 6980 µg·h/mL. It also gave an AUC(0-t) ([1]; whole blood, 1500 mg, whole blood, normal hepatic function, 1500 mg single oral dose, read-out: AUCt, GM (converted)) of 6950 µg·h/mL, a Cmax [1, 5] of 60.9 µg/mL and a Vd/F [1, 5] of 19.6 L. The Tmax [1, 5] was 24 h, the “plasma Cmax, higher than normal hepatic function” value (from here on “plasma Cmax”) ([1]; mild hepatic impairment) was 18% and the “whole blood Cmax, higher than normal hepatic function” value (from here on “whole blood Cmax”) ([1]; mild hepatic impairment) was 19%. For the same molecule, the “AUC in whole blood higher compared to normal hepatic function” value (shortened to “AUC … compared to normal hepatic function”) ([1]; mild hepatic impairment (Child Pugh A)) was 14%, the “plasma Cmax” value ([1]; moderate hepatic impairment) was 51% and the “whole blood Cmax” value ([1]; moderate hepatic impairment) was 6%. For the same molecule, the “AUC … compared to normal hepatic function” value ([1]; moderate hepatic impairment (Child Pugh B)) was 15%, the “AUCinf, Ratio of Geometric LS Mean (Test to Reference)” value (shortened to “AUCinf, Ratio of Geometric LS Mean”) [1, 6] was 1.093 and the “AUCt, Ratio of Geometric LS Mean (Test to Reference)” value (“AUCt, Ratio of Geometric LS Mean” for short) [1, 6] was 1.089. The “Cmax, Ratio of Geometric LS Mean (Test to Reference)” value (from here on “Cmax, Ratio of Geometric LS Mean”) [1, 6] was 1.177, the “AUCinf, Ratio of Geometric LS Mean” value [1, 7] was 1.180 and the “AUCt, Ratio of Geometric LS Mean” value [1, 7] was 1.207. The “Cmax, Ratio of Geometric LS Mean” value [1, 7] was 1.510, the “AUCinf, Ratio of Geometric LS Mean” value [1, 8] was 1.932 and the “AUCt, Ratio of Geometric LS Mean” value [1, 8] was 1.907. For the same molecule, the “Cmax, Ratio of Geometric LS Mean” value [1, 8] was 1.445, the “CL/F, GM” value ([1]; plasma, mild hepatic impairment, 1500 mg single oral dose) was 76.69 L/h and the “CL/F, GM” value ([1]; plasma, moderate hepatic impairment, 1500 mg single oral dose) was 56.14 L/h. For the same molecule, the “CL/F, GM” value ([1]; plasma, normal hepatic function, 1500 mg single oral dose) was 77.50 L/h, the “CL/F, GM” value ([1]; plasma, severe hepatic impairment, 600 mg single oral dose) was 73.81 L/h and the “AUC … compared to normal hepatic function” value ([1]; severe hepatic impairment (Child Pugh C)) was 90%. The “plasma Cmax” value [1, 9] was 45%, the “whole blood Cmax” value [1, 9] was 39% and the “AUCinf, Ratio of Geometric LS Mean” value [1, 10] was 1.141. The “AUCt, Ratio of Geometric LS Mean” value [1, 10] was 1.140, the “Cmax, Ratio of Geometric LS Mean” value [1, 10] was 1.187 and the “AUCinf, Ratio of Geometric LS Mean” value [1, 11] was 1.151. The “AUCt, Ratio of Geometric LS Mean” value [1, 11] was 1.149, the “Cmax, Ratio of Geometric LS Mean” value [1, 11] was 1.056 and the “AUCinf, Ratio of Geometric LS Mean” value [1, 12] was 1.902. The “AUCt, Ratio of Geometric LS Mean” value [1, 12] was 1.867, the “Cmax, Ratio of Geometric LS Mean” value [1, 12] was 1.391 and the “CL/F, GM” value ([1]; whole blood, mild hepatic impairment, 1500 mg single oral dose) was 70.182 L/h. For the same molecule, the “CL/F, GM” value ([1]; whole blood, moderate hepatic impairment, 1500 mg single oral dose) was 60.179 L/h, the “CL/F, GM” value ([1]; whole blood, normal hepatic function, 1500 mg single oral dose) was 70.215 L/h and the “CL/F, GM” value ([1]; whole blood, severe hepatic impairment, 600 mg single oral dose) was 70.110 L/h. The “clinical measures of hemolysis (indirect bilirubin and % reticulocytes)” value (Hb; in vivo) was “dose-dependent reduction” and the “Hb oxygen affinity as determined by the change in p50” value (Hb; linearly correlated with voxelotor exposure) was “dose-dependent increase in Hb oxygen affinity”.
